Activity calls are given as the source filed them. The calls are words filed in the database; no cut-off is given here.
Legend:
HepG2 = experiment: Antiproliferative activity against human HepG2 cells assessed as inhibition of cell growth at 10 uM measured after 72 hrs by MTT assay relative to control; type: functional
HT-29 = experiment: Antiproliferative activity against human HT-29 cells assessed as inhibition of cell growth at 10 uM measured after 72 hrs by MTT assay relative to control; type: functional
MDA-MB-231 [1] = experiment: Antiproliferative activity against human MDA-MB-231 cells assessed as inhibition of cell growth at 10 uM measured after 72 hrs by MTT assay relative to control; type: functional
MCF7 = experiment: Antiproliferative activity against human MCF7 cells assessed as inhibition of cell growth at 10 uM measured after 72 hrs by MTT assay relative to control; type: functional
A549 [2] = experiment: Antiproliferative activity against human A549 cells assessed as inhibition of cell growth at 10 uM measured after 72 hrs by MTT assay relative to control; type: functional
[3] = Cytotoxicity against HUVEC cells assessed as inhibition of cell growth at 10 uM measured after 72 hrs by MTT assay; type: cell-based; settings: human
A549 [4] = experiment: Antiproliferative activity against human A549 cells assessed as inhibition of cell growth measured after 72 hrs by MTT assay; type: functional, cell-based; settings: A549, 72 h
MDA-MB-231 [5] = experiment: Antiproliferative activity against human MDA-MB-231 cells assessed as inhibition of cell growth measured after 72 hrs by MTT assay; type: functional, cell-based; settings: MDA-MB-231, 72 h
A549 [6] = experiment: Potency index, ratio of IC50 of CLX-4 to IC50 of compound for antiproliferative activity against human A549 cells assessed as inhibition of cell growth measured after 72 hrs by MTT assay; type: functional
MDA-MB-231 [7] = experiment: Potency index, ratio of IC50 of CLX-4 to IC50 of compound for antiproliferative activity against human MDA-MB-231 cells assessed as inhibition of cell growth measured after 72 hrs by MTT assay; type: functional
MDA-MB-231 [8] = experiment: Induction of morphological changes in human MDA-MB-231 cells assessed as rounded cell morphology at 10 to 100 uM by optical inverted microscopic analysis; type: functional, cell-based; settings: dose 10-100 µM
MDA-MB-231 [9] = experiment: Induction of morphological changes in human MDA-MB-231 cells assessed as cell shrinkage at 10 to 100 uM by optical inverted microscopic analysis; type: functional, cell-based; settings: dose 10-100 µM
MDA-MB-231 [10] = experiment: Induction of morphological changes in human MDA-MB-231 cells assessed as shedding of cell morphology at 10 to 100 uM by optical inverted microscopic analysis; type: functional, cell-based; settings: dose 10-100 µM
MDA-MB-231 [11] = experiment: Antimigratory activity in human MDA-MB-231 cells assessed as cell migration at 2 uM measured after 48 hrs by wound healing assay (reference value: 67.4 %); type: functional
MDA-MB-231 [12] = experiment: Antimigratory activity in human MDA-MB-231 cells assessed as cell migration at 4 uM measured after 48 hrs by wound healing assay (reference value: 67.4 %); type: functional
MDA-MB-231 [13] = experiment: Antimigratory activity in human MDA-MB-231 cells assessed as cell migration at 8 uM measured after 48 hrs by wound healing assay (reference value: 67.4 %); type: functional
MDA-MB-231 [14] = experiment: Antimigratory activity in human MDA-MB-231 cells assessed as reduction in cell migration measured after 48 hrs by wound healing assay; type: functional, cell-based
MDA-MB-231 [15] = experiment: Induction of apoptosis in human MDA-MB-231 cells assessed as viable cells at 0.2 uM measured after 48 hrs by Annexin V-FITC/propidium iodide staining based flow cytometry (reference value: 94.1 %); type: functional; settings: read-out: Activity
MDA-MB-231 [16] = experiment: Induction of apoptosis in human MDA-MB-231 cells assessed as early apoptotic cells at 0.2 uM measured after 48 hrs by Annexin V-FITC/propidium iodide staining based flow cytometry (reference value: 1.03 %); type: functional
MDA-MB-231 [17] = experiment: Induction of apoptosis in human MDA-MB-231 cells assessed as late apoptotic cells at 0.2 uM measured after 48 hrs by Annexin V-FITC/propidium iodide staining based flow cytometry (reference value: 4.5 %); type: functional
MDA-MB-231 [18] = experiment: Induction of apoptosis in human MDA-MB-231 cells assessed as necrotic cells at 0.2 uM measured after 48 hrs by Annexin V-FITC/propidium iodide staining based flow cytometry (reference value: 0.36 %); type: functional
MDA-MB-231 [19] = experiment: Induction of apoptosis in human MDA-MB-231 cells assessed as viable cells at 2 uM measured after 48 hrs by Annexin V-FITC/propidium iodide staining based flow cytometry (reference value: 94.1 %); type: functional; settings: read-out: Activity
MDA-MB-231 [20] = experiment: Induction of apoptosis in human MDA-MB-231 cells assessed as early apoptotic cells at 2 uM measured after 48 hrs by Annexin V-FITC/propidium iodide staining based flow cytometry (reference value: 1.03 %); type: functional
MDA-MB-231 [21] = experiment: Induction of apoptosis in human MDA-MB-231 cells assessed as late apoptotic cells at 2 uM measured after 48 hrs by Annexin V-FITC/propidium iodide staining based flow cytometry (reference value: 4.5 %); type: functional
MDA-MB-231 [22] = experiment: Induction of apoptosis in human MDA-MB-231 cells assessed as necrotic cells at 2 uM measured after 48 hrs by Annexin V-FITC/propidium iodide staining based flow cytometry (reference value: 0.36 %); type: functional
MDA-MB-231 [23] = experiment: Induction of apoptosis in human MDA-MB-231 cells assessed as viable cells at 20 uM measured after 48 hrs by Annexin V-FITC/propidium iodide staining based flow cytometry (reference value: 94.1 %); type: functional; settings: read-out: Activity
MDA-MB-231 [24] = experiment: Induction of apoptosis in human MDA-MB-231 cells assessed as early apoptotic cells at 20 uM measured after 48 hrs by Annexin V-FITC/propidium iodide staining based flow cytometry (reference value: 1.03 %); type: functional
MDA-MB-231 [25] = experiment: Induction of apoptosis in human MDA-MB-231 cells assessed as late apoptotic cells at 20 uM measured after 48 hrs by Annexin V-FITC/propidium iodide staining based flow cytometry (reference value: 4.5 %); type: functional
MDA-MB-231 [26] = experiment: Induction of apoptosis in human MDA-MB-231 cells assessed as necrotic cells at 20 uM measured after 48 hrs by Annexin V-FITC/propidium iodide staining based flow cytometry (reference value: 0.36 %); type: functional
MDA-MB-231 [27] = experiment: Induction of cell cycle arrest in human MDA-MB-231 cells assessed as increase in accumulation in G0/G1 phase at 0.2 to 20 uM measured after 48 hrs by propidium iodide staining based flow cytometry; type: functional; settings: dose 0.2-20 µM
MDA-MB-231 [28] = experiment: Induction of apoptosis in human MDA-MB-231 cells assessed as increase in caspase-3 activation at 0.4 to 10 uM measured after 48 hrs by Western blot analysis; type: functional, cell-based; settings: dose 0.4-10 µM
MDA-MB-231 [29] = experiment: Induction of apoptosis in human MDA-MB-231 cells assessed as increase in cleaved PARP level at 0.4 to 10 uM measured after 48 hrs by Western blot analysis; type: functional, cell-based; settings: dose 0.4-10 µM
MDA-MB-231 [30] = experiment: Induction of apoptosis in human MDA-MB-231 cells assessed as increase in Bax expression at 0.4 to 10 uM measured after 48 hrs by Western blot analysis; type: functional, cell-based; settings: dose 0.4-10 µM
MDA-MB-231 [31] = experiment: Induction of apoptosis in human MDA-MB-231 cells assessed as decrease in Bcl-2 expression at 0.4 to 10 uM measured after 48 hrs by Western blot analysis; type: functional, cell-based; settings: dose 0.4-10 µM
MDA-MB-231 [32] = experiment: Induction of apoptosis in human MDA-MB-231 cells assessed as increase in ratio of Bax/Bcl-2 at 0.4 to 10 uM measured after 48 hrs by Western blot analysis; type: functional, cell-based; settings: dose 0.4-10 µM
MDA-MB-231 [33] = experiment: Induction of cell cycle arrest in human MDA-MB-231 cells assessed as decrease in CDK4 expression at 0.4 to 10 uM measured after 48 hrs by Western blot analysis; type: functional, cell-based; settings: dose 0.4-10 µM
MDA-MB-231 [34] = experiment: Induction of cell cycle arrest in human MDA-MB-231 cells assessed as decrease in CyclinD1 expression at 0.4 to 10 uM measured after 48 hrs by Western blot analysis; type: functional, cell-based; settings: dose 0.4-10 µM
MDA-MB-231 [35] = experiment: Induction of apoptosis in human MDA-MB-231 cells assessed as increase in fluorescence intensity at 0.2 to 20 uM measured after 48 hrs by Hoechst 33342 staining based fluorescence microscopic analysis; type: functional, cell-based; settings: dose 0.2-20 µM
MDA-MB-231 [36] = experiment: Induction of apoptosis in human MDA-MB-231 cells assessed as nuclear condensation at 0.2 to 20 uM measured after 48 hrs by Hoechst 33342 staining based fluorescence microscopic analysis; type: functional, cell-based; settings: dose 0.2-20 µM
MDA-MB-231 [37] = experiment: Induction of apoptosis in human MDA-MB-231 cells assessed as nuclear rupture at 0.2 to 20 uM measured after 48 hrs by Hoechst 33342 staining based fluorescence microscopic analysis; type: functional, cell-based; settings: dose 0.2-20 µM
MDA-MB-231 [38] = experiment: Induction of apoptosis in human MDA-MB-231 cells assessed as increase in apoptotic bodies at 0.2 to 20 uM measured after 48 hrs by Hoechst 33342 staining based fluorescence microscopic analysis; type: functional, cell-based; settings: dose 0.2-20 µM

For `CCC(Oc1c2cc(C(C)(C)C)cc1Cc1cc(C(C)(C)C)cc(c1O)Cc1cc(C(C)(C)C)cc(c1OC(CC)C(=O)N(CCO)CCO)Cc1cc(C(C)(C)C)cc(c1O)C2)C(=O)N(CCO)CCO` (stereo unspecified), the inhibition at 10 µM (HepG2) was 89.6%, the inhibition at 10 µM (HT-29) was 64.2% and the inhibition at 10 µM (MDA-MB-231 [1]) was 88.2%. The inhibition at 10 µM (MCF7) was 90.4%, the inhibition at 10 µM (A549 [2]) was 90.7% and the inhibition at 72 h, 10 µM [3] was 9.6%. For the same compound, the IC50 (A549 [4]) was 1200 nM, the IC50 (MDA-MB-231 [5]) was 660 nM and the “Ratio IC50” value (A549 [6]) was 3.2. For the same compound, the “Ratio IC50” value (MDA-MB-231 [7]) was 6.8, the Activity (MDA-MB-231 [8]) was “Active” and the Activity (MDA-MB-231 [9]) was “Active”. For the same compound, the Activity (MDA-MB-231 [10]) was “Active”, the Activity (MDA-MB-231 [11]) was 76.9% and the Activity (MDA-MB-231 [12]) was 79%. The Activity (MDA-MB-231 [13]) was 84%, the Activity (MDA-MB-231 [14]) was “Dose-dependent effect” and the viability at 0.2 µM (MDA-MB-231 [15]) was 65.5%. It also gave an Activity (MDA-MB-231 [16]) of 12.3%, an Activity (MDA-MB-231 [17]) of 21.2% and an Activity (MDA-MB-231 [18]) of 1.13%. For the same compound, the viability at 2 µM (MDA-MB-231 [19]) was 56.9%, the Activity (MDA-MB-231 [20]) was 22.1% and the Activity (MDA-MB-231 [21]) was 20.7%. For the same compound, the Activity (MDA-MB-231 [22]) was 0.34%, the viability at 20 µM (MDA-MB-231 [23]) was 39% and the Activity (MDA-MB-231 [24]) was 19.2%. For the same compound, the Activity (MDA-MB-231 [25]) was 40.4%, the Activity (MDA-MB-231 [26]) was 1.37% and the Activity (MDA-MB-231 [27]) was “Active”. For the same compound, the Activity (MDA-MB-231 [28]) was “Active”, the Activity (MDA-MB-231 [29]) was “Active” and the Activity (MDA-MB-231 [30]) was “Active”. The Activity (MDA-MB-231 [31]) was “Active”, the Activity (MDA-MB-231 [32]) was “Active” and the Activity (MDA-MB-231 [33]) was “Active”. The Activity (MDA-MB-231 [34]) was “Active”, the Activity (MDA-MB-231 [35]) was “Active” and the Activity (MDA-MB-231 [36]) was “Active”. For the same compound, the Activity (MDA-MB-231 [37]) was “Active” and the Activity (MDA-MB-231 [38]) was “Active”.
